Here are results for seven compounds from patent US10131558B1, “Compositions, methods, and/or systems for managing sulfide” (priority 2016, dated 2018).

Where two headings read alike, the source gives them in different places.

The test system of data set [1] is total heterotrophic bacteria. In words: Disinfection of wastewater using chelated iron compounds. Type of data set: cell-based. The note with it: 30 min, raw average 18,188 CFUs; for Test 3 CFUs/ml 12 ppm Fe-Chelant: chelant alone, no H2O2. The method, then: The clarified supernatant was then pored off of the top of the settled solids within the sample. The supernatant was then mixed and four samples were collected to determine untreated heterotrophic bacteria counts. […] were dissolved in distilled water at 0.4334M. Ferric chloride was added in amounts to achieve saturation of chelant sites on the respective chelants. […] Twenty individual liter samples of supernatant were then decanted from the well-mixed wastewater sample for testing. Four chelated iron products with peroxide were tested at two test concentrations and compared to samples receiving peroxide only and iron chelate only. […] Samples were then decanted to sterile sample containers containing sodium thiosulfate to stop the oxidation process and preserve the sample. Samples were then placed in a refrigerator until all samples were finished. Samples were packaged in a standard cooler with ice packs and sent via overnite delivery to ProChem Labs in Lynchburg, Va. for analysis for total heterotrophic bacteria counts.

Data set [2] can be described thus: Treatment of sulfides in municipal wastewater using ferric chelants and ozone. The settings on record: ozone ~13.4 ppm, 4 ppm ferric chelant where used; for sulfide remaining: start 13.70. An excerpt: The raw wastewater received a dose of 4 ppm of each of the four ferric chelants (mass calculated as chelant) just prior to addition of ozone.
Ozone addition was accomplished using an ozone generator from Ozone Solutions, Sioux Center, Iowa. The generator was capable of generating up to 2 grams per hour of ozone. Injection of ozone into the wastewater was accomplished using an injection system from Ozone Solutions called the H2O-Mini. The unit is designed to treat from 1.5 to 5.7 liters per minute of wastewater. The unit was set up to deliver 6.7 mg/minute of dissolved ozone (assumed the 80% efficiency of dissolution noted by the manufacturer) to wastewater passing the injection nozzle within the H2O-mini. Each test was designed for maximum wastewater flow through the H2O-mini (5.7 liters/min).
An objective of the study will be to treat most, but not all, of the sulfide present within the individual test samples in order to determine which treatment was more efficient than the others.
Samples were taken over twenty minutes of contact time from the recirculation vessel after ozonation. For each of the four ferric chelant studies, chelants were added to the wastewater recirculation vessels just prior to starting the injection of ozone and recirculation of the liquids. The injection of ozone was applied over the prescribed period and sampled as before in the ozone only experiment.

A short description of data set [3]: Treatment of sulfides in municipal wastewater using ferric chelants and hydrogen peroxide. The settings on record: 20 ppm chelant and 105.8 ppm hydrogen peroxide.
For data set [4] the following is noted: cited from earlier work.
Data set [5] in a line: Anaerobic sulfide treatment: pure oxygen versus pure oxygen + ferric MGDA. The note with it: 10 cc pure oxygen, ~0.1 ml ~0.03 M Fe MGDA where used.
The nature of data set [6]: Anaerobic sulfide treatment: pure oxygen versus pure oxygen + ferric MGDA and nitrate. The settings on record: for Sulfide: control 33, 10 cc pure oxygen, ~0.1 ml ~0.03 M Fe MGDA with ~8.75 mg nitrate where used. An excerpt:
Three 300 milliliter Supelco test flasks were utilized for conducting the testing. Each flask had two valves and a single port for a septum to inject chemistry into the vessel. Each test flask was completely filled to zero headspace with wastewater from a municipal wastewater treatment facility that had been spiked with sodium sulfide. […] Test flasks were left at room temperature for two hours to assure that any oxygen within the wastewater in the test flasks was consumed prior to the study so as to mimic anaerobic wastewater conditions to initiate the study. […] Oxygen was injected simultaneously with a slight opening of a valve on the cylinder so that wastewater could could be displaced by the incoming volume of oxygen. […] The control sample flask received no injection of any ingredients. After injection of ingredients into each test flask, the flasks were placed on a New Brunswick Shaker Table and shaken for variable periods of time at ˜200 rpm's. After each test period flasks were removed and a sample extracted for sulfide testing using a La Motte Sulfide Color Comparison Test Kit. Sample for the control was taken at time zero for each study.

Data set [7] can be described thus: Nitrate addition to sewage, lab jar tests and sewage collection system test.

For `O=C([O-])CN(CCN(CC(=O)[O-])CC(=O)[O-])CC(=O)[O-].[Fe+3]` [Fe-EDTA], in data set [1], the “Test 1 CFUs/ml 19.8 ppm H2O2 6 ppm Fe-Chelant” value came to 360 CFUs/ml. Also, the “Test 2 CFUs/ml 39.6 ppm H2O2 12 ppm Fe-Chelant” value in data set [1] was found to be 59 CFUs/ml. In addition, in data set [1], the “Test 3 CFUs/ml 12 ppm Fe-Chelant” value is 18,200 CFUs/ml. Moreover, the “Overall total percentage of sulfide reduction” value in data set [2] and in data set [2] (listed as ferric EDTA) was 64% each time. The sulfide remaining is on record as 6.20 ppm in data set [2] (5 min contact), 5.10 ppm in data set [2] (10 min contact) and 4.90 ppm in data set [2] (20 min contact). The “sulfide reduction after 15 minutes” value in data set [3] came out at 60%.

With `O=C([O-])CN(CCO)CC(=O)[O-].[Fe+3]` [Fe-HEIDA], in data set [1], the “Test 1 CFUs/ml 19.8 ppm H2O2 6 ppm Fe-Chelant” value is on record as 1350 CFUs/ml. Also, the “Test 2 CFUs/ml 39.6 ppm H2O2 12 ppm Fe-Chelant” value in data set [1] is listed as 84 CFUs/ml. The “Test 3 CFUs/ml 12 ppm Fe-Chelant” value in data set [1] is recorded as 16,700 CFUs/ml. Further, the “Overall total percentage of sulfide reduction” value in data set [2] and in data set [2] (listed as ferric HEIDA) was 60% each time. The figures for the sulfide remaining in data set [2] (5 min contact), in data set [2] (10 min contact) and in data set [2] (20 min contact) were 6.80 ppm, 6.00 ppm and 5.40 ppm, respectively.

Regarding `O=C([O-])CN(CC(=O)[O-])CC(=O)[O-].[Fe+3]` [Fe-NTA], the “Test 1 CFUs/ml 19.8 ppm H2O2 6 ppm Fe-Chelant” value in data set [1] came out at 370 CFUs/ml. In data set [1], the “Test 2 CFUs/ml 39.6 ppm H2O2 12 ppm Fe-Chelant” value was found to be 75 CFUs/ml. Moreover, the “Test 3 CFUs/ml 12 ppm Fe-Chelant” value in data set [1] was 18,300 CFUs/ml. Also, the “Overall total percentage of sulfide reduction” value in data set [2] and in data set [2] (listed as ferric NTA) was 91% in each case. In addition, the sulfide remaining amounted to 3.40 ppm in data set [2] (5 min contact), 1.90 ppm in data set [2] (10 min contact) and 1.30 ppm in data set [2] (20 min contact). Also, in data set [3], the “sulfide reduction after 15 minutes” value was determined as 70.2%.

Consider `S` [HS^−], for which the “Proportion in dissolved sulfide” value in data set [4] (pH 5.0) is on record as around 0.01; in data set [4] (pH 6.0) it was around 0.09; in data set [4] (pH 6.2) it was around 0.14; in data set [4] (pH 6.4) it was around 0.20; in data set [4] (pH 6.6), around 0.28; in data set [4] (pH 6.8) it was around 0.39. The “Proportion in dissolved sulfide” value in data set [4] (pH 7.0) is recorded as around 0.50; in data set [4] (pH 7.2), around 0.61; in data set [4] (pH 7.4) it was around 0.72; in data set [4] (pH 7.6) it was around 0.80; in data set [4] (pH 7.8) it was around 0.86; in data set [4] (pH 8.0), around 0.91. Besides, the “Proportion in dissolved sulfide” value is given as around 0.941 in data set [4] (pH 8.2); around 0.961 in data set [4] (pH 8.4); around 0.975 in data set [4] (pH 8.6); around 0.986 in data set [4] (pH 8.8); around 0.99 in data set [4] (pH 9.0).

`O=O` [Oxygen, oxygen]: the Sulfide in data set [5] (Trial 1, 5 min, control 33, 300 ml flask) was 25 mg/L; in data set [5] (Trial 2, 5 min, control 31), 25 mg/L; in data set [5] (Trial 2, 22 min, control 31), 1.5 mg/L; in data set [6] (5 min), 30; in data set [6] (10 min), 16. The sulfide reduced entry in data set [6] (after 10 minutes of contact) is “approximately 50%”.

For the compound `O=[O+][O-]` [Ozone, ozone, reference compound], in data set [2], the “Overall total percentage of sulfide reduction” value was 46%. Also, the sulfide remaining in data set [2] (5 min contact) amounted to 8.05 ppm; in data set [2] (10 min contact) it was 7.50 ppm; in data set [2] (20 min contact), 7.40 ppm.

For `O=[N+]([O-])[O-].[Na+]` [sodium nitrate], the “reduction in sewage biological oxygen demand, BOD” value in data set [7] is reported as at most 70%. For the same compound, in data set [7] (sewage containing over approximately 50 mg/L dissolved hydrogen sulfide), the “dissolved hydrogen sulfide after dosing” value is below 0.1 mg/L.
